{
  "source": "paper PMC10525927",
  "about": "“First Generation of Antioxidant Precursors for Bioisosteric Se-NSAIDs: Design, Synthesis, and In Vitro and In Vivo Anticancer Evaluation” (Antioxidants, 2023)",
  "key": {"H1299 lung cancer cells": {"system": "H1299 lung cancer cells", "test": "MTT cell viability assay, H1299", "assay_type": "cell-based", "settings": "mean ± SD", "description": "(§1) The cell lines were purchased from the American Type Culture Collection (ATCC). The cancer cell lines DU-145, PC-3, T-47D, MDA-MB-231, H1299, and A549, and the non-tumorigenic cells (184B5 and BEAS-2B), were maintained in RPMI 1640 medium (Gibco, Alcobendas, Madrid, Spain) supplemented with 10% fetal bovine serum (FBS; Gibco) and 1% antibiotics (10.00 units/mL penicillin and 10.00 mg/mL streptomycin; Gibco). Colon cancer cells HT-29 and HCT-116 were cultured in McCoy’s 5A medium (Gibco) supplemented with 10% fetal bovine serum (FBS; Gibco) and 1% antibiotics (10.00 units/mL penicillin and 10.00 mg/mL streptomycin; Gibco). Cells were maintained in tissue culture flasks at 37 °C and 5% CO2. The culture medium was replaced every three days.\n(§2) The antiproliferative activity and selectivity in vitro of the Se-NSAID derivatives were determined by the (3-(4,5-dimethylthiazol-2-yl)-2,5-diphenyltetrazolium bromide) (MTT) assay. Compounds were dissolved in DMSO at a concentration of 0.01 M and serial dilutions were prepared. The Se-NSAID derivatives were tested at seven concentrations ranging between 1 and 100 µM in the colon (HT-29 and HCT-116), prostate (DU-145 and PC-3), breast (MDA-MB-231 and T-47D), and lung (H1299 and A549) cancer cell lines. The non-tumorigenic breast (184B5) and lung (BEAS-2B) cell lines were also tested to assess the selectivity of the compounds following the same procedure. A total of 1 × 10^4 cells were seeded per well in 96-well plates and incubated at 5% CO2 and 37 °C for 24 h. Then, cells were treated with either DMSO or increasing concentrations of the corresponding Se-NSAID derivatives for 48 h. A volume of 20 µL of MTT (5 mg/mL) was added to each well 2.5 h before the termination point. At the end of the experiment, the medium was removed, and the resultant formazan crystals formed by mitochondrial reduction of MTT were dissolved in 50 µL of DMSO. Absorbance was measured at 550 nm. IC50, GI50, TGI, and LC50 values were calculated using OriginPro version 8.5.1. software by nonlinear curve fitting. Selectivity indexes (SI) were calculated as the ratio of the IC50 values determined for the nonmalignant and the tumoral cells in the breast (IC50 (184B5)/IC50 (MDA-MB-231) and IC50 (184B5)/IC50 (T-47D)) and lung (IC50 (BEAS-2B)/IC50 (H1299) and IC50 (BEAS-2B)/IC50 (A549)) cell lines. Data were obtained from at least three independent experiments performed in triplicates."}, "In vivo toxicity study": {"test": "In vivo toxicity study", "design": "species or system mice", "settings": "7.5 mg/Kg IP thrice weekly, 27 days", "description": "(§3) Female mice of 4–5 weeks of age (The Jackson Laboratory, Bar Harbor, ME, USA) were kept on the daily cycle of 12 h light/dark and received food and water ad libitum throughout the studies. All animal procedures were performed following the National Institutes of Health (NIH) Guide for the Care and Use of Laboratory Animals and protocols were approved by the Animal Care and Use Committee of the Penn State College of Medicine.\nMice were treated either with intraperitoneal doses of 7.5 mg/Kg of compound 5 or with DMSO (vehicle) thrice weekly and kept under observation for 27 days. Body weight, behavior, and food and water intake were monitored every alternate day. At the end of the study, animals were sacrificed by euthanizing the animals by CO2 asphyxiation. The blood serum was withdrawn and subjected to the biochemical analysis of creatinine (mg/dL), AST(SGOT) (U/L), ALT(SGPT) (U/L), Alk. Phos (U/L), and BUN (mg/dL)."}, "[1]": {"system": "BEAS-2B non-tumorigenic lung (bronchial epithelium) cells", "test": "MTT cell viability assay, BEAS-2B", "assay_type": "cell-based", "settings": "48 h, mean ± SD; for IC50: nonmalignant lung cells", "description": "as §1, §2"}, "[2]": {"system": "HCT-116 colon cancer xenograft", "test": "Tumor growth inhibition on HCT-116 colon cancer xenograft model", "assay_type": "in vivo", "settings": "10 mg/Kg IP", "description": "as §3\nAll mice were housed in quarantine for one week prior to the inoculation of the cancer cells. Female nude mice (4–5 weeks old) were subcutaneously injected (100 µL of PBS/flank) with 2.5 × 10^6 HCT-116 colon cancer cells in each flank. Two weeks after inoculation, mice were sorted randomly into treatment and control groups (five mice/group) such that the mean tumor volumes were similar between groups. […] Mice that were injected with only DMSO (vehicle) were used as negative controls. The body weight of animals and the tumor volume were monitored thrice weekly. Tumor volumes were calculated using the formula (L × W^2)/2, wherein L and W are the length and width of the tumor mass measured with a vernier caliper, respectively. At the end of the experiment, mice were sacrificed by euthanizing the animals by CO2 asphyxiation, and the tumors were excised and weighed. Inspection of major morphological changes in organs was also carried out. The antitumor effect was assessed by the tumor growth inhibition (TGI) and the relative increment ratio (T/C) parameters in the aspects of tumor volume and tumor weight, respectively. The TGI was calculated using the following formula: TGI (%) = [1 − (T − T0)/(C − C0)] × 100, wherein T and C are the final tumor volumes measured at the end of the treatment of compound-treated mice and vehicle-treated mice, respectively, whereas T0 and C0 are the tumor volumes measured at the beginning of the treatment of compound-treated mice and vehicle-treated mice, respectively. The T/C value was calculated as WT/WC × 100, wherein WT is the mean of tumor weight of the compound-treated mice, and WC is the mean of tumor weight of the vehicle-treated mice."}, "HT-29 colon cancer cells": {"system": "HT-29 colon cancer cells", "test": "MTT cell viability assay, HT-29", "assay_type": "cell-based", "settings": "mean ± SD", "description": "as §1, §2"}, "[3]": {"system": "184B5 non-tumorigenic breast (mammary gland) cells", "test": "MTT cell viability assay, 184B5", "assay_type": "cell-based", "settings": "mean ± SD; for IC50: nonmalignant breast cells", "description": "as §1, §2"}, "[4]": {"system": "T-47D breast cancer cells", "test": "MTT cell viability assay, T-47D", "assay_type": "cell-based", "settings": "48 h, mean ± SD", "description": "as §1, §2"}, "[5]": {"system": "HCT-116 colon cancer cells", "test": "MTT cell viability assay, HCT-116", "assay_type": "cell-based", "settings": "mean ± SD", "description": "as §1, §2"}, "[6]": {"settings": "in vitro TGI concentration, 48 h, Table S1"}, "[7]": {"settings": "in vitro TGI concentration, Table S1"}},
  "data": [
    {"smiles": "CC(C)Cc1ccc(C(C)C(=O)[Se][Se]C(=O)C(C)c2ccc(CC(C)C)cc2)cc1", "note": "(stereo not drawn) [Compound 5, 2-(4-Isobutylphenyl)propanoic diselenoperoxyanhydride]", "values": [
      {"measurement": "LD50 H1299", "setting": "H1299 lung cancer cells; 48 h, Table S1", "value": "16.5 ± 5.1", "unit": "µM"},
      {"measurement": "IC50", "setting": "H1299 lung cancer cells; Homo sapiens, NCI-H1299, 48 h", "value": "9.3 ± 0.6", "unit": "µM"},
      {"measurement": "GI50", "setting": "H1299 lung cancer cells; Homo sapiens, NCI-H1299, 48 h, Table S1", "value": "8.1 ± 1", "unit": "µM"},
      {"measurement": "TGI H1299", "setting": "H1299 lung cancer cells; [6]", "value": "10.2 ± 1.0", "unit": "µM"},
      {"measurement": "blood serum biochemistry (creatinine, AST, ALT, Alk. Phos, BUN) vs vehicle", "setting": "In vivo toxicity study; female nude mice, endpoint", "value": "no significant changes"},
      {"measurement": "behavior and food/water uptake", "setting": "In vivo toxicity study; mice", "value": "no changes"},
      {"measurement": "body weight during treatment", "setting": "In vivo toxicity study; mice", "value": "no appreciable variations"},
      {"measurement": "LD50 BEAS-2B", "setting": "[1]; Table S1", "value": "14.8 ± 4.7", "unit": "µM"},
      {"measurement": "IC50", "setting": "[1]", "value": "15.9 ± 2.4", "unit": "µM"},
      {"measurement": "GI50", "setting": "[1]; Homo sapiens, BEAS-2B, Table S1", "value": "7.8 ± 2.3", "unit": "µM"},
      {"measurement": "IC50", "setting": "[1]; Homo sapiens, BEAS-2B", "value": "14 to 19", "unit": "µM"},
      {"measurement": "TGI BEAS-2B", "setting": "[1]; [7]", "value": "9.8 ± 1.6", "unit": "µM"},
      {"measurement": "TGI (tumor growth inhibition, tumor volume)", "setting": "[2]; HCT-116 subcutaneous xenograft, female nude mice, 23 days of treatment, day 38, vs vehicle", "value": 72, "unit": "%"},
      {"measurement": "T/C (relative increment ratio, tumor weight)", "setting": "[2]; HCT-116 subcutaneous xenograft, female nude mice, end of treatment", "value": 38, "unit": "%"},
      {"measurement": "body weight of the mice vs vehicle during treatment", "setting": "[2]; HCT-116 xenograft mice", "value": "slight change"},
      {"measurement": "toxicity signs (morphological abnormalities in major organs)", "setting": "[2]; HCT-116 xenograft mice, end of experiment", "value": "no evident toxicity signs"},
      {"measurement": "IC50", "setting": "HT-29 colon cancer cells; Homo sapiens, HT-29, 48 h", "value": "8.5 ± 2.7", "unit": "µM"},
      {"measurement": "GI50", "setting": "HT-29 colon cancer cells; Homo sapiens, HT-29, 48 h, Table S1", "value": "4.8 ± 1", "unit": "µM"},
      {"measurement": "TGI HT-29", "setting": "HT-29 colon cancer cells; [6]", "value": "7.2 ± 1.8", "unit": "µM"},
      {"measurement": "IC50", "setting": "[3]; 48 h", "value": "18.2 ± 0.8", "unit": "µM"},
      {"measurement": "GI50", "setting": "[3]; Homo sapiens, 184B5, 48 h, Table S1", "value": "6.6 ± 1.5", "unit": "µM"},
      {"measurement": "IC50", "setting": "[3]; Homo sapiens, 184B5, 48 h", "value": "14 to 19", "unit": "µM"},
      {"measurement": "TGI 184B5", "setting": "[3]; [6]", "value": "11.1 ± 1.4", "unit": "µM"},
      {"measurement": "LD50 T-47D", "setting": "[4]; Table S1", "value": "4.2 ± 0.3", "unit": "µM"},
      {"measurement": "IC50", "setting": "[4]; Homo sapiens, T47D", "value": "3.8 ± 0.2", "unit": "µM"},
      {"measurement": "GI50", "setting": "[4]; Homo sapiens, T47D, Table S1", "value": "1.8 ± 0.4", "unit": "µM"},
      {"measurement": "TGI T-47D", "setting": "[4]; [7]", "value": "2.7 ± 0.3", "unit": "µM"},
      {"measurement": "IC50", "setting": "[5]; Homo sapiens, HCT-116, 48 h", "value": "9 ± 3", "unit": "µM"},
      {"measurement": "GI50", "setting": "[5]; Homo sapiens, HCT-116, 48 h, Table S1", "value": "4.6 ± 1.5", "unit": "µM"},
      {"measurement": "TGI HCT-116", "setting": "[5]; [6]", "value": "10.3 ± 3.8", "unit": "µM"}
    ]}
  ]
}
